Series [1] in a line: In vitro dissociation in blood plasma of rat. Conditions: fresh SD rat plasma, 37° C.; for Sampling time/Dissociation percent (%) 2 min: 2 min incubation; for Sampling time/Dissociation percent (%) 5 min: 5 min incubation; for Sampling time/Dissociation percent (%) 10 min: 10 min incubation. It counts as in vitro ADME, SD rats. As to the method: The obtained water soluble taxane derivatives of the following formulae were formulated as 0.2 mg/ml aqueous solutions. […] After 2 min, 5 min and 10 min of incubation, 0.2 ml of solutions were respectively taken from each of the samples, and added to acetonitrile (0.4 ml) cooled to −20° C. for precipitation of protein.

The conditions of series [2]: physiological saline.
Series [3] is described as follows: In vitro dissociation in blood plasma of rabbit. Format: in vitro ADME, New Zealand white rabbits. Conditions: fresh New Zealand white rabbit plasma, 37° C. As to the method:
The obtained water soluble taxane derivatives of the following formulae were formulated as 0.2 mg/ml aqueous solutions. […]

Each structure is given as a SMILES string.

One may read the Solubility as the dissolved amount per volume that the medium holds. A high value points to much dissolved substance. In the case of `CC(=O)O[C@@]12CO[C@@H]1C[C@H](O)[C@@]1(C)C(=O)[C@H](O)C3=C(C)[C@@H](OC(=O)[C@H](OC(=O)[C@H](F)CC(C)N(C)C)[C@@H](NC(=O)OC(C)(C)C)c4ccccc4)C[C@@](O)([C@@H](OC(=O)c4ccccc4)[C@H]21)C3(C)C.Cl` (stereo partly drawn) [Compound C13, 2′-O-[4-N,N-dimethylamino-2(R)-fluorovaleryl]docetaxel hydrochloride], in series [1], the “Sampling time/Dissociation percent (%) 2 min” value was 44.8%, the “Sampling time/Dissociation percent (%) 5 min” value was 84.8% and the “Sampling time/Dissociation percent (%) 10 min” value came out at 92.7%. The “Solubility” value in series [2] turned out to be 2300 µg/mL. Further, in series [3], the “Sampling time/Dissociation percent (%) 2 min” value stood at 46.2%, the “Sampling time/Dissociation percent (%) 5 min” value came to 78.9% and the “Sampling time/Dissociation percent (%) 10 min” value is 93.4%.

As for `CC(=O)O[C@H]1C(=O)[C@]23C[C@H]2C[C@H]2OC[C@@]2(OC(C)=O)[C@H]3[C@H](OC(=O)c2ccccc2)[C@]2(O)C[C@H](OC(=O)[C@H](OC(=O)[C@H](F)CC(C)N(C)C)[C@@H](NC(=O)OC(C)(C)C)c3ccccc3)C(C)=C1C2(C)C.Cl` (stereo partly drawn) [Compound C16, 2′-O-[4-N,N-dimethylamino-2(R)-fluorovaleryl]larotaxel hydrochloride], in series [1], the “Sampling time/Dissociation percent (%) 2 min” value is 61.1%, the “Sampling time/Dissociation percent (%) 5 min” value is reported as 93.8% and the “Sampling time/Dissociation percent (%) 10 min” value is given as 100%. The “Solubility” value in series [2] was 800 µg/mL. Also, in series [3], the “Sampling time/Dissociation percent (%) 2 min” value is on record as 68.2%, the “Sampling time/Dissociation percent (%) 5 min” value was 94.4% and the “Sampling time/Dissociation percent (%) 10 min” value came out at 100%.

Turning to `CC(=O)O[C@@]12CO[C@@H]1CC[C@@]1(C)[C@@H]3O[C@H](CN(C)C)O[C@@H]3C3=C(C)[C@@H](OC(=O)[C@H](OC(=O)[C@H](F)CC(C)N(C)C)[C@@H](NC(=O)OC(C)(C)C)c4ncccc4F)C[C@@](O)([C@@H](OC(=O)c4ccccc4)[C@@H]12)C3(C)C.Cl` (stereo partly drawn) [Compound C17, 2′-O-[4-N,N-dimethylamino-2(R)-fluorovaleryl]tesetaxel hydrochloride], in series [1], the “Sampling time/Dissociation percent (%) 2 min” value is given as 60.7%, the “Sampling time/Dissociation percent (%) 5 min” value was 95.5% and the “Sampling time/Dissociation percent (%) 10 min” value amounted to 100%. Moreover, the “Solubility” value in series [2] amounted to 1000 µg/mL. Moreover, in series [3], the “Sampling time/Dissociation percent (%) 2 min” value was 69.7%, the “Sampling time/Dissociation percent (%) 5 min” value worked out at 96.8% and the “Sampling time/Dissociation percent (%) 10 min” value was 100%.

Source of the values: patent US9650390B2, “Water-soluble taxane derivatives and uses thereof” (priority 2014, dated 2017).
